Measurements published in ChEMBL document CHEMBL1201862, “PubChem BioAssay data set” (2004).
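Five concentrations, 48 hours, 96-well plates. Here, GI50 denotes the concentration required for 50% inhibition of growth.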 The source made the active and inactive calls. No stated cut-off is given here; in the data, active = GI50 up to about 1.1 µM and inactive = higher.

Legend:
Assay in all cases: inhibition of tumour cell growth, NCI panel, 48 h
HOP-92 = test system: HOP-92
SF-295 = test system: SF-295
HCC 2998 = test system: HCC 2998
UACC-257 = test system: UACC-257
HL-60 = test system: HL-60
LOX IMVI = test system: LOX IMVI
Malme-3M = test system: Malme-3M
NCI-H23 = test system: NCI-H23
CCRF-CEM = test system: CCRF-CEM
IGROV-1 = test system: IGROV-1
ACHN = test system: ACHN
SK-MEL-2 = test system: SK-MEL-2
K562 = test system: K562
OVCAR-8 = test system: OVCAR-8
M19-MEL = test system: M19-MEL
NCI-H226 = test system: NCI-H226
HCT-116 = test system: HCT-116
DU-145 = test system: DU-145
OVCAR-4 = test system: OVCAR-4
BT-549 = test system: BT-549

Measured: GI50

Cc1nc(-n2nc(-c3ccccc3)cc2-c2ccccc2)sc1C(=O)/C=C/c1ccccc1
inactive: HOP-92 70.1 µM | SF-295 > 100 µM | HCC 2998 > 100 µM | UACC-257 > 100 µM | HL-60 60.4 µM | LOX IMVI > 100 µM | Malme-3M > 100 µM | NCI-H23 > 100 µM | CCRF-CEM 72.9 µM | IGROV-1 75.5 µM | ACHN > 100 µM | SK-MEL-2 > 100 µM | K562 49.8 µM | OVCAR-8 > 100 µM | M19-MEL > 100 µM

CCN(CC)CCNC(=O)c1cccc2cc3ccccc3nc12
inactive: NCI-H226 4.18 µM | HOP-92 4.78 µM | SF-295 7.23 µM | HCC 2998 5.89 µM | HL-60 4.8 µM | LOX IMVI 5.57 µM | HCT-116 3.52 µM | CCRF-CEM 5.69 µM | IGROV-1 5.2 µM | ACHN 3.45 µM | SK-MEL-2 7.53 µM | K562 3.72 µM | OVCAR-8 6 µM | M19-MEL 4.89 µM

CC1OC(OC2C(O)COC(OC3C(C)OC(OC4C(OC(=O)[C@]56CCC(C)(C)C[C@@H]5C5=CCC7[C@@]8(C)C[C@H](O)[C@H](OC9OC(CO)C(O)C(O)C9O)[C@@](C)(CO)[C@@H]8CC[C@@]7(C)[C@]5(C)CC6)OCC(O)C4O)C(O)C3OC3OCC(O)(CO)C3O)C2O)C(O)C(O)C1O (some centres undefined)
inactive: DU-145 14.3 µM | OVCAR-4 15.7 µM | BT-549 16.6 µM | NCI-H226 16.9 µM | HOP-92 26.6 µM | SF-295 13.6 µM | HCC 2998 5.18 µM | UACC-257 9.77 µM | HL-60 8.73 µM | LOX IMVI 19.8 µM | Malme-3M 12 µM | HCT-116 13.9 µM | NCI-H23 9.31 µM | CCRF-CEM 18.5 µM | IGROV-1 13.3 µM | ACHN 12.5 µM | SK-MEL-2 13.8 µM | K562 28.5 µM | OVCAR-8 18.5 µM

CC(C)CC(NC(=O)C(COc1ccc([N+](=O)[O-])cc1)Cc1ccccc1)C(=O)Nc1ccccc1 (centres undefined)
inactive: DU-145 > 100 µM | OVCAR-4 2.35 µM | BT-549 10.9 µM | NCI-H226 3.44 µM | HOP-92 13.3 µM | SF-295 11.2 µM | HCC 2998 13.1 µM | UACC-257 25.7 µM | HL-60 10.3 µM | LOX IMVI 48.6 µM | Malme-3M 5.02 µM | HCT-116 22.2 µM | NCI-H23 13 µM | CCRF-CEM 7.26 µM | IGROV-1 7.8 µM | ACHN 16.8 µM | SK-MEL-2 21.7 µM | K562 19.2 µM | OVCAR-8 6.98 µM

COc1ccc(O)c(/C(C)=N/NC(=S)N(C)C)c1
inactive: DU-145 44 µM | OVCAR-4 2.63 µM | BT-549 36 µM | NCI-H226 16.1 µM | HOP-92 > 100 µM | SF-295 31.3 µM | HCC 2998 > 61.9 µM | UACC-257 63.4 µM | HL-60 56 µM | LOX IMVI 4.48 µM | Malme-3M 71 µM | HCT-116 19.6 µM | NCI-H23 24.7 µM | CCRF-CEM 8.93 µM | IGROV-1 14.3 µM | ACHN 13.5 µM | SK-MEL-2 > 43.2 µM | K562 60.1 µM | OVCAR-8 33.4 µM

COc1cc2c(cc1O)C(Cc1ccc(OCc3ccccc3)c(OCc3ccccc3)c1)N(C(=O)NCCc1ccccc1)CC2 (centres undefined)
inactive: DU-145 > 100 µM | OVCAR-4 78.9 µM | BT-549 > 100 µM | NCI-H226 > 100 µM | HOP-92 > 100 µM | SF-295 > 100 µM | HCC 2998 86.9 µM | UACC-257 > 100 µM | HL-60 37.3 µM | LOX IMVI > 100 µM | Malme-3M > 100 µM | HCT-116 45.1 µM | NCI-H23 > 100 µM | CCRF-CEM 15 µM | IGROV-1 > 100 µM | ACHN > 100 µM | SK-MEL-2 > 100 µM | K562 74.3 µM | OVCAR-8 > 100 µM

O=C(CC1C(=O)Nc2ccccc2[S+]1[O-])Nc1cc(Cl)ccc1Cl (centres undefined)
inactive: NCI-H226 > 100 µM | HOP-92 > 100 µM | SF-295 > 100 µM | HCC 2998 > 100 µM | UACC-257 > 100 µM | HL-60 > 100 µM | LOX IMVI > 100 µM | Malme-3M > 100 µM | HCT-116 > 100 µM | NCI-H23 > 100 µM | CCRF-CEM > 100 µM | IGROV-1 > 100 µM | ACHN > 100 µM | SK-MEL-2 > 100 µM | K562 > 100 µM | OVCAR-8 > 100 µM | M19-MEL > 100 µM

CCC(=O)Nc1ccc(NCC(=O)Nc2ccc(OC)cc2)cc1
inactive: DU-145 31.8 µM | OVCAR-4 13.2 µM | BT-549 23.2 µM | NCI-H226 12.4 µM | HOP-92 23.8 µM | SF-295 46.7 µM | HCC 2998 6.76 µM | UACC-257 7.8 µM | HL-60 28.2 µM | LOX IMVI 16.6 µM | Malme-3M 21.6 µM | HCT-116 26.1 µM | NCI-H23 19.9 µM | CCRF-CEM 25.4 µM | IGROV-1 25.8 µM | ACHN 40.5 µM | SK-MEL-2 18.4 µM | K562 35.6 µM | OVCAR-8 19.7 µM

COc1cccc(NC(=S)Nn2c(C)nc3ccccc3c2=O)c1
inactive: OVCAR-4 > 100 µM | NCI-H226 80.2 µM | HOP-92 > 100 µM | SF-295 > 100 µM | UACC-257 > 100 µM | HL-60 > 100 µM | LOX IMVI > 100 µM | Malme-3M > 100 µM | HCT-116 > 100 µM | NCI-H23 > 100 µM | CCRF-CEM > 100 µM | IGROV-1 > 100 µM | ACHN > 100 µM | SK-MEL-2 > 100 µM | K562 > 100 µM | OVCAR-8 > 100 µM | M19-MEL > 100 µM

CC(C)c1cccc(C(C)C)c1NC(=O)C(=O)C(C(=O)c1ccccc1-c1ccccc1)C1OC(=O)c2ccccc21 (centres undefined)
inactive: OVCAR-4 16 µM | NCI-H226 > 10 µM | SF-295 16.6 µM | HCC 2998 17.6 µM | UACC-257 12.6 µM | LOX IMVI 14.2 µM | Malme-3M 14.8 µM | HCT-116 24.9 µM | NCI-H23 1.25 µM | CCRF-CEM 13.8 µM | IGROV-1 24.3 µM | ACHN 32.3 µM | SK-MEL-2 14.9 µM | K562 21.4 µM | OVCAR-8 13.7 µM | M19-MEL 17.1 µM

CC(=O)CCCCCCCCCCCC[C@@H]1CC[C@H](C)[C@H](O)N1
inactive: NCI-H226 > 100 µM | HOP-92 > 100 µM | SF-295 > 100 µM | HCC 2998 > 100 µM | UACC-257 > 100 µM | HL-60 43.4 µM | LOX IMVI 40.3 µM | Malme-3M > 100 µM | HCT-116 > 100 µM | NCI-H23 > 100 µM | CCRF-CEM > 100 µM | IGROV-1 > 100 µM | ACHN > 100 µM | SK-MEL-2 > 100 µM | K562 > 100 µM | OVCAR-8 > 100 µM | M19-MEL 95.5 µM

CCCCNC1=C(C(=O)OCC)/C(=N/NC(=O)c2ccccc2O)CO1
inactive: OVCAR-4 19.4 µM | NCI-H226 18.5 µM | SF-295 76.6 µM | HCC 2998 34.4 µM | UACC-257 2.82 µM | HL-60 24.8 µM | LOX IMVI 25.5 µM | Malme-3M 35.2 µM | HCT-116 6.68 µM | NCI-H23 18.8 µM | CCRF-CEM 23.7 µM | IGROV-1 8.99 µM | SK-MEL-2 18.4 µM | K562 13.2 µM | OVCAR-8 95.1 µM | M19-MEL > 100 µM

O=C(O)c1c[nH]cc1C(=O)O
inactive: OVCAR-4 > 100 µM | NCI-H226 > 100 µM | HOP-92 > 100 µM | SF-295 > 100 µM | UACC-257 > 100 µM | HL-60 > 100 µM | LOX IMVI > 100 µM | Malme-3M > 100 µM | HCT-116 > 100 µM | NCI-H23 > 100 µM | CCRF-CEM > 100 µM | IGROV-1 > 100 µM | K562 > 100 µM | OVCAR-8 > 100 µM | M19-MEL > 100 µM

Cc1ccc(C(=O)N2CCCCC2)cc1/N=N/N(C)C
inactive: OVCAR-4 > 100 µM | NCI-H226 > 100 µM | SF-295 > 100 µM | HCC 2998 > 100 µM | UACC-257 > 100 µM | HL-60 > 100 µM | LOX IMVI > 100 µM | Malme-3M > 100 µM | HCT-116 > 100 µM | NCI-H23 > 100 µM | CCRF-CEM > 100 µM | IGROV-1 > 100 µM | ACHN > 100 µM | SK-MEL-2 > 100 µM | K562 > 100 µM | OVCAR-8 > 100 µM | M19-MEL > 100 µM

CC1CC(=O)CC[C@@H]1OCc1ccccc1 (some centres undefined)
inactive: OVCAR-4 > 100 µM | SF-295 > 100 µM | HCC 2998 > 100 µM | UACC-257 > 100 µM | HL-60 > 100 µM | LOX IMVI > 100 µM | Malme-3M > 100 µM | HCT-116 81.3 µM | NCI-H23 > 100 µM | CCRF-CEM 53.8 µM | IGROV-1 > 100 µM | ACHN > 100 µM | SK-MEL-2 > 100 µM | K562 58.1 µM | OVCAR-8 > 100 µM | M19-MEL > 100 µM

COc1cc2oc(=O)ccc2cc1CC=C(C)C [SUBEROSIN]
inactive: DU-145 36.8 µM | OVCAR-4 23.4 µM | BT-549 24.4 µM | NCI-H226 29.6 µM | HOP-92 18 µM | SF-295 41.1 µM | HCC 2998 31 µM | UACC-257 54.3 µM | HL-60 14.7 µM | LOX IMVI 39.1 µM | Malme-3M 37.4 µM | HCT-116 38.6 µM | NCI-H23 52.4 µM | CCRF-CEM 44 µM | IGROV-1 62.8 µM | ACHN 35.2 µM | SK-MEL-2 45.3 µM | K562 51.4 µM | OVCAR-8 44.6 µM
